In ChEMBL document CHEMBL1201862, “PubChem BioAssay data set” (2004):
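Each compound was tested at five concentrations against cells in 96-well plates for 48 hours. Abbreviation: GI50, concentration required for 50% inhibition of growth.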 Active and inactive are the calls of the source. Rule as the data show it: active = GI50 up to about 1.1 µM and inactive = higher.

Experiments:
Assay in all cases: NCI anticancer screen, dose series, 48 h
UACC-257 = tested on: UACC-257
SNB-19 = tested on: SNB-19
HL-60 = tested on: HL-60
NCI-H522 = tested on: NCI-H522
KM12 = tested on: KM12
NCI-H226 = tested on: NCI-H226
U-251 = tested on: U-251
SK-MEL-28 = tested on: SK-MEL-28
RPMI-8226 = tested on: RPMI-8226
Malme-3M = tested on: Malme-3M
HOP-62 = tested on: HOP-62
IGROV-1 = tested on: IGROV-1
UO-31 = tested on: UO-31
EKVX = tested on: EKVX
SF-295 = tested on: SF-295
HOP-92 = tested on: HOP-92
LOX IMVI = tested on: LOX IMVI
CCRF-CEM = tested on: CCRF-CEM
K562 = tested on: K562
MOLT-4 = tested on: MOLT-4

| SMILES | GI50 (UACC-257) | GI50 (SNB-19) | GI50 (HL-60) | GI50 (NCI-H522) | GI50 (KM12) | GI50 (NCI-H226) | GI50 (U-251) | GI50 (SK-MEL-28) | GI50 (RPMI-8226) | GI50 (Malme-3M) | GI50 (HOP-62) | GI50 (IGROV-1) | GI50 (UO-31) | GI50 (EKVX) | GI50 (SF-295) | GI50 (HOP-92) | GI50 (LOX IMVI) | GI50 (CCRF-CEM) | GI50 (K562) | GI50 (MOLT-4) |
| --- | --- | --- | --- | --- | --- | --- | --- | --- | --- | --- | --- | --- | --- | --- | --- | --- | --- | --- | --- | --- |
| Cc1c2c(cc3c1[nH]c1ccccc13)C(c1ccc(F)cc1)=NCC2 | 1.03 µM (active) | 1.41 µM (inactive) | 0.358 µM (active) | 1.08 µM (active) | 0.869 µM (active) | 1.43 µM (inactive) | 1.43 µM (inactive) | 1.48 µM (inactive) | 0.935 µM (active) | 1.68 µM (inactive) | 2.05 µM (inactive) | 0.855 µM (active) | 1.08 µM (active) | 2.07 µM (inactive) | 0.869 µM (active) | 1.44 µM (inactive) | 0.509 µM (active) | 1.14 µM (inactive) | 0.379 µM (active) | 1 µM (active) |
| Cc1ccccc1OCC(COC(=O)Nc1ccccc1)OC(=O)Nc1ccccc1 (stereo not given) | > 100 µM (inactive) | 22.1 µM (inactive) | 4.28 µM (inactive) | 19.6 µM (inactive) | 26.3 µM (inactive) | 25.8 µM (inactive) | 38 µM (inactive) | > 100 µM (inactive) | 1.81 µM (inactive) | 30.9 µM (inactive) | 31.9 µM (inactive) | > 100 µM (inactive) | 34.6 µM (inactive) | > 100 µM (inactive) | 51.3 µM (inactive) | 10.9 µM (inactive) | 15.1 µM (inactive) | > 100 µM (inactive) | 4.05 µM (inactive) | 3.49 µM (inactive) |
| CCCC[C@H]1[C@@H](OCOc2ccccc2)COC(=O)N1[C@H](C)c1ccccc1 | 9.66 µM (inactive) | 21.3 µM (inactive) | 18 µM (inactive) | 10.3 µM (inactive) | 12.9 µM (inactive) | > 100 µM (inactive) | 14.7 µM (inactive) | 21.6 µM (inactive) | 6.76 µM (inactive) | 15.7 µM (inactive) | 13.8 µM (inactive) | 14.7 µM (inactive) | 11.8 µM (inactive) | 25.4 µM (inactive) | 11.9 µM (inactive) | 18.1 µM (inactive) | 20.8 µM (inactive) | 16.8 µM (inactive) | 7.18 µM (inactive) | 4.54 µM (inactive) |
| Cc1[nH]c(=O)[nH]c(=O)c1C(=O)N(CCO)Cc1ccccc1 | 34.7 µM (inactive) | > 100 µM (inactive) | > 100 µM (inactive) | > 100 µM (inactive) | > 100 µM (inactive) | 17 µM (inactive) | > 100 µM (inactive) | > 100 µM (inactive) | > 100 µM (inactive) | > 100 µM (inactive) | > 100 µM (inactive) | 33 µM (inactive) | > 100 µM (inactive) | > 100 µM (inactive) | 35.5 µM (inactive) | 27 µM (inactive) | > 100 µM (inactive) | > 100 µM (inactive) | > 100 µM (inactive) | > 100 µM (inactive) |
| CC1=CC2c3cccc4[nH]cc(c34)CC2N(C)C1 (stereo not given) | 22.4 µM (inactive) | > 100 µM (inactive) | 31.6 µM (inactive) | > 100 µM (inactive) | > 100 µM (inactive) | > 100 µM (inactive) | > 100 µM (inactive) | > 100 µM (inactive) | > 100 µM (inactive) | 30.3 µM (inactive) | 15.8 µM (inactive) | > 100 µM (inactive) | 11.9 µM (inactive) | > 100 µM (inactive) | 53.3 µM (inactive) | 24.4 µM (inactive) | 70.8 µM (inactive) | > 91.6 µM (inactive) | 32.7 µM (inactive) | > 68.1 µM (inactive) |
| Nc1ncc2c(n1)-c1ccccc1OC2 | > 100 µM (inactive) | > 100 µM (inactive) | > 100 µM (inactive) | > 100 µM (inactive) | > 100 µM (inactive) | 36.6 µM (inactive) | > 100 µM (inactive) | > 100 µM (inactive) | > 100 µM (inactive) | > 100 µM (inactive) | 76 µM (inactive) | 40.4 µM (inactive) | 45.2 µM (inactive) | 94.4 µM (inactive) | > 100 µM (inactive) | 98.4 µM (inactive) | > 100 µM (inactive) | > 100 µM (inactive) | > 100 µM (inactive) | > 100 µM (inactive) |
